Source: patent publication US8715684B2, “Peptides inducing a CD4i conformation in HIV gp120 while retaining vacant CD4 binding site” (priority 2007, dated 2014)
“Also recorded” adds a separate entry of the source. Read-outs that look alike come from different tables or passages of the source.

Experiments:
gp120BaL = experiment: Dot blot of m2 phages with gp120BaL, probed with panel of defining mAbs (FIG. 8); assay type: binding, HIV-1
Description: Each dot was applied in duplicate.
A second measure of “improved peptide” characteristics is the ability to bind gp120s derived from other HIV-1 isolates. (m1 was developed using gp120451.) The preference was to identify a peptide that has the same type of effect on the BaL isolate of HIV-1 as does the m1-peptide for the 451 isolate.

gp120 = details: for Kd: quantitative ELISA, FIG. 7
gp120451 = experiment: Dot blot of phage-displayed peptides incubated with gp120451, probed with defining mAbs or CD4 (FIG. 1, 4); assay type: binding, HIV-1
Experimental: Phages expressing the m1 peptide as protein fusions (m1) or not (fth1, as a negative control) were applied to nitrocellulose membranes as dots and incubated with or without gp120451. After washing, the filters were probed with either anti-gp120 mAb or the CG10 mAb as indicated and signals were developed by enhanced chemiluminescence (ECL)
Of the gp120-binding peptides isolated, one was particularly unique. […] As noted above, binding of CG10 to its epitope is absolutely dependent on the CD4i conformation of gp120. It was concluded that m1 binds to the CD4 binding site and acts as a CD4 mimetic, triggering a structural rearrangement locking gp120 into the CD4i conformation.
Because the CD4i conformation of gp120 can disrupt the integrity/accessibility of important neutralizing epitopes of gp120 [e.g. b12 (Xiang et al., 2002, supra)] the binding of a panel of neutralizing antibodies was tested.

CD4 = CD4 (Homo sapiens, UniProt P01730); experiment: Capture ELISA of m1 phages with CD4 alone (FIG. 2E); assay type: binding; details: CD4 without gp120
Description: Anti-M13 (phage) antibody was adsorbed to microplate wells to capture either m1 peptide-expressing phages (A, B, D, E) or fth1-negative control phage (C).

gp120JR-FL = experiment: Binding of peptides to gp120 of the JR-FL isolate; parameters: species or system HIV-1

Row | Sequence | CD4 binding by peptide-captured gp120BaL (gp120BaL) | induction of CD4i epitopes (CG10, 17b) in gp120BaL (gp120BaL) | integrity of neutralizing / CD4BS epitopes (2G12, b12, b6, m14) in peptide-captured gp120BaL (gp120BaL) | binding to gp120BaL (gp120BaL; phage-displayed peptide) | fold increase in binding / affinity for gp120 versus m1 (gp120; compared with m1) [fold] | Kd (gp120; read-out: KD for gp120 binding) [nM] | Kd (gp120; read-out: apparent affinity constant for gp120 binding) [nM] | binding of CD4BS mAbs b12, b6 and m14 to peptide/gp120 complex (gp120451) | induction of the CG10 epitope (CG10 mAb binding to peptide/gp120451 complex) (gp120451; phage-displayed peptide) | binding of peptide to CD4 alone (CD4) | binding to gp120JR-FL (gp120JR-FL) | binding of CD4 to peptide/gp120 complex (gp120451) | binding to gp120451 (gp120451; phage-displayed peptide)
1 | CDRRDLPDWAIRAC [m2] | is able to bind CD4 itself | induces CD4i epitopes; also recorded: induces both the CG10 and 17b epitopes | maintains the integrity of the CD4BS epitopes; also recorded: intact and available | binds m2 peptide; also recorded: binds also to gp120BaL | 10 | 6.5 | 6.5 | without interfering with b12, b6 or m14 binding | induced CG10 binding | – | – | – | –
2 | CDRRDLPQWAKREC [m1] | – | – | – | – | – | – | – | bind the m1/gp120 complex very well; also recorded: without interfering with b12, b6 or m14 binding | elicit the CG10 epitope; also recorded: CG10 bound the complex; also recorded: induces the CG10 epitope; also recorded: induced CG10 binding | no affinity for CD4 alone; also recorded: CD4 does not bind m1 | not to gp120JR-FL | CD4 itself bound the m1/gp120 complex | specifically bind gp120; also recorded: binds gp120; also recorded: binds to gp120451
